Measurements: patent US20020002144A1, “Methods and compositions for bisubstrate inhibitors of acetyltransferases” (The Government of the United States of America, Department …, priority 1999, published 2002)

Columns and labels:
[1] = system: arylamine N-acetyltransferase (E.C. 2.3.1.5); settings: adverse reactions reported to result from acetylation of the drug; cited from earlier work
rat pinealocytes [2] = assay: Cytotoxicity to pinealocytes (response to norepinephrine after wash out); assay type: cell-based; settings: 18 hour treatment with 0.5 μM, medium changed, then norepinephrine
Description: (§1) Pineal cell preparation and treatment: Pinealocytes were prepared from rat pineal glands by trypsinization as previously described (10). The cells were suspended in Dulbecco's modified Eagle medium (DMEM) containing 10% fetal calf serum and maintained (37° C.) for 18 h in a gas mixture of 95% air and 5% CO2. During this 18 hour period, some cells were treated, as indicated in Table 2 experiment 2, in aliquots of 50,000 cells/300 μl and washed prior to addition of fresh medium and further treatment. In some cases, as in Table 3, experiment 1, cells were not aliquoted until after 18 hours of control incubation and in these cases, aliquots of cells (50,000 cells/300 μl) were prepared and treated with drugs. Drugs were prepared in 100×concentrated solutions in water or dimethyl sulfoxide. The duration of the drug treatment was 5 h.
The effect of an 18 hour treatment with 0.5 μM N-bromoacetyltryptamine was examined. Following the 18 hour treatment, the medium was changed and fresh medium was added. Following this treatment, cells responded to norepinephrine treatment with an increase in melatonin production and AANAT activity.

AANAT [3] = target: T1, AANAT (Rattus norvegicus, UniProt Q64666); assay: AANAT activity in treated pinealocytes; assay type: cell-based; settings: Experiment 2
T1 construct: Pinealocytes were prepared from rat pineal glands by trypsinization; endogenous in cells; host or cells: primary pinealocytes from male Sprague-Dawley rats
T1 sequence (Q64666 whole entry): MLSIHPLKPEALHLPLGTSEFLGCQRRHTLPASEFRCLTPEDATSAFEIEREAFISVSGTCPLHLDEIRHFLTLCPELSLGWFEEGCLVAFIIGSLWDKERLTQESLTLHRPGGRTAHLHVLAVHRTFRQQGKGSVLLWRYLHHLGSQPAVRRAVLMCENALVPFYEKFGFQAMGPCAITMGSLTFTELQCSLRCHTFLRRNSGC
Description: AANAT assay: The specific activity of the AANAT preparation was determined from measurement of the activity of the enzyme and amount of protein in a preparation. Activity was assayed by incubating the enzyme with ^3H-acetyl CoA (0.5 mM, 4 μCi/μmole) and tryptamine hydrochloride (1 mM), bovine serum albumin (0.5 mg/ml) and the enzyme in total volume of 100 μl of sodium phosphate (0.1M, pH 6.8) (6,7). The incubation was terminated by extracting the product ^3H-acetyltryptamine with chloroform (1 ml). The chloroform phase was washed sequentially with 200 μl of the sodium phosphate buffer and twice with 200 μl of NaOH (1N). The radioactivity in 400 μl of the chloroform phase was determined following evaporation of chloroform under vacuum. Protein was measured by optical density at 280 nm and by dye binding using the Brandford procedure. Pineal cell preparation and treatment: Pinealocytes were prepared from rat pineal glands by trypsinization as previously described (10). The cells were suspended in Dulbecco's modified Eagle medium (DMEM) containing 10% fetal calf serum and maintained (37° C.) for 18 h in a gas mixture of 95% air and 5% CO2. During this 18 hour period, some cells were treated, as indicated in Table 2 experiment 2, in aliquots of 50,000 cells/300 μl and washed prior to addition of fresh medium and further treatment. In some cases, as in Table 3, experiment 1, cells were not aliquoted until after 18 hours of control incubation and in these cases, aliquots of cells (50,000 cells/300 μl) were prepared and treated with drugs. Drugs were prepared in 100×concentrated solutions in water or dimethyl sulfoxide. The duration of the drug treatment was 5 h. At the end of treatment period, cells were collected by centrifugation (2 min, 10,000 g) and the medium was removed and stored. Cell pellets were frozen immediately in dry ice and stored at −80° C. until determination of AANAT activity. The supernatant collected was used for determination of melatonin.

rat pinealocytes [4] = assay: Melatonin production by norepinephrine-treated pinealocytes (radioimmunoassay of medium); assay type: cell-based; settings: for Melatonin production: Experiment 1, 18-24 hours; for Melatonin (18-23 hr): Experiment 2
Description: as §1
At the end of treatment period, cells were collected by centrifugation (2 min, 10,000 g) and the medium was removed and stored. Cell pellets were frozen immediately in dry ice and stored at −80° C. until determination of AANAT activity. The supernatant collected was used for determination of melatonin.
Melatonin analysis. Melatonin in the medium was determined by a radioimmunoassay as described previously (11,12). Briefly, melatonin was extracted from 300 μl of medium by vortexing with 1 ml of methylene chloride. After centrifugation, 700 μl of the organic phase was collected and evaporated to dryness. The residue was reconstituted in 500 μl of assay buffer (0.01M phosphate buffer, pH 7.5, containing 0.1% gelatin).
An ultraspecific melatonin antiserum from CIDtech Research Inc. (Mississauga, Ontario Canada) was used for the melatonin radioimmunoassay. Aliquots of extracted melatonin samples were diluted to 500 μl with assay buffer. 100 μl of melatonin antiserum and 50 μl of [^3H]melatonin (˜2000 cpm, at 45.5 Ci/mmol) were then added. After mixing, the tubes were incubated at 4° C. overnight. To separate the bound from the free [^3H] melatonin, 650 μl of saturated ammonium sulphate were added and the samples were incubated at 4° C. for 1 hr. The bound [^3H]melatonin was collected in a protein pellet by centrifugation (4,000 g×30 min) and re-dissolved in 550 μl of deionized water. 500 μl was then used for scintillation counting. Both inter- and intra-assay variability were less than 10%.
N-Bromoacetyltryptamine treatment of rat pinealocytes inhibits melatonin production. Experiments were conducted to determine if N-bromoacetyltryptamine could inhibit production of melatonin. This was done using rat pinealocytes in which melatonin production was elevated by treatment with norepinephrine, which acts by elevating the activity of AANAT.

AANAT [5] = target: T2, AANAT (Ovis aries, UniProt Q29495); assay: AANAT assay with aqueous extracts of AANAT/CoA/N-bromoacetyltryptamine pre-incubations; assay type: biochemical; settings: 20 μl extract in 100 μl AANAT assay
T2 construct: made in house
T2 sequence (Q29495 whole entry): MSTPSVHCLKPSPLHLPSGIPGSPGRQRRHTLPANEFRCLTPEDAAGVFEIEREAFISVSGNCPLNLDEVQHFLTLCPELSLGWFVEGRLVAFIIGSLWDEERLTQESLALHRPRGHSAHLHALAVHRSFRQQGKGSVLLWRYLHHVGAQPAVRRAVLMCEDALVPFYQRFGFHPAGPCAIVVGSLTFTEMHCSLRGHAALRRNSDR
Description: AANAT assay: The specific activity of the AANAT preparation was determined from measurement of the activity of the enzyme and amount of protein in a preparation. Activity was assayed by incubating the enzyme with ^3H-acetyl CoA (0.5 mM, 4 μCi/μmole) and tryptamine hydrochloride (1 mM), bovine serum albumin (0.5 mg/ml) and the enzyme in total volume of 100 μl of sodium phosphate (0.1M, pH 6.8) (6,7). The incubation was terminated by extracting the product ^3H-acetyltryptamine with chloroform (1 ml). The chloroform phase was washed sequentially with 200 μl of the sodium phosphate buffer and twice with 200 μl of NaOH (1N). The radioactivity in 400 μl of the chloroform phase was determined following evaporation of chloroform under vacuum. Protein was measured by optical density at 280 nm and by dye binding using the Brandford procedure.
Incubations to study formation of CoA-S-N-acetyltryptamine.—Bromoacetyltryptamine (20 μM) was incubated (37° C., 30 min) with coenzyme A (20 μM), bovine serum albumin (0.5 mg/ml) and the enzyme in a total volume of 100 μl of Tris HCl (50 mM, pH 7.4) and the incubation was terminated by adding chloroform (1 ml) and vortexing. The aqueous phase was then removed. Samples of the aqueous phase from each chloroform extraction were analyzed by mass spectroscopy and for inhibitory activity in an AANAT assay.
This conclusion was supported by the biochemical evidence from experiments in which the aqueous extracts analyzed above were incubated with a fresh preparation of AANAT in an AANAT assay. Inhibitory activity of the extract was determined.

[6] = Treatment I BAT (0.5 μM) (0-18 hr), wash out, Treatment II NE (10 μM) (18-23 hr)
[7] = Treatment I DMSO (0-18 hr), Treatment II NE 10 μM + BAT (0.5 μM) (18-23 hr)
[8] = Treatment I DMSO (0-18 hr), Treatment II NE 10 μM (18-23 hr)

## CCN(CC)CCNC(=O)c1ccc(N)cc1 [Procainamide]
[1]
  Adverse Drug Reaction Reported: Lupus, uncontrolled arrhythmias

## O=C(CBr)NCCc1c[nH]c2ccccc12 [N-Bromoacetyltryptamine]
Rat pinealocytes [2]
  cytotoxicity: not cytotoxic
AANAT [3]; [6]
  AANAT (23 hr): 0.86 ± 0.06 μmol/h/105 cells
AANAT [3]; [7]
  AANAT (23 hr): 0.48 ± 0.05 μmol/h/105 cells
Rat pinealocytes [4]; 5 hour treatment with 0.1, 0.5 or 1 μM, norepinephrine-treated rat pinealocytes
  production of melatonin: markedly reduced
Rat pinealocytes [4]; N-Bromoacetyltryptamine (1 μM) alone
  Melatonin production: 0.65 ± 0.05 pmol/100,000 cells
Rat pinealocytes [4]; Norepinephrine (10 μM) + N-Bromoacetyltryptamine (0.1 μM)
  Melatonin production: 4.55 ± 0.04 pmol/100,000 cells
Rat pinealocytes [4]; Norepinephrine (10 μM) + N-Bromoacetyltryptamine (1 μM)
  Melatonin production: 0.95 ± 0.25 pmol/100,000 cells
Rat pinealocytes [4]; Treatment I BAT (0.5 μM) (0-18 hr), wash out, Treatment II Control (18-23 hr)
  Melatonin (18-23 hr): 1.78 ± 0.14 pmole/10^5 cells
Rat pinealocytes [4]; [6]
  Melatonin (18-23 hr): 12.22 ± 2.90 pmole/10^5 cells
Rat pinealocytes [4]; [7]
  Melatonin (18-23 hr): 1.88 ± 0.82 pmole/10^5 cells
AANAT [5]; Complete pre-assay reaction (AANAT + CoA 20 μM + N-bromoacetyltryptamine 20 μM, 37° C., 30 min), read-out: AANAT Activity (% of control)
  remaining activity at 20 µM: 38%
AANAT [5]; pre-assay reaction Minus CoA
  AANAT Activity (% of control): 107%
AANAT [5]; pre-assay reaction Zero time (not incubated)
  AANAT Activity (% of control): 110%
AANAT [5]; pre-assay reaction with Boiled enzyme
  AANAT Activity (% of control): 104%

## NC[C@H](O)c1ccc(O)c(O)c1 [Norepinephrine, reference compound]
AANAT [3]; [8]
  AANAT (23 hr): 0.89 ± 0.10 μmol/h/105 cells
Rat pinealocytes [4]; Norepinephrine (10 μM) alone
  Melatonin production: 12.43 ± 2.00 pmol/100,000 cells
Rat pinealocytes [4]; [8]
  Melatonin (18-23 hr): 10.44 ± 1.07 pmole/10^5 cells

## NNC(=O)c1ccncc1 [Isoniazid]
[1]
  Adverse Drug Reaction Reported: Peripheral neuropathy, liver

## Nc1ccc(S(=O)(=O)c2ccc(N)cc2)cc1 [Dapsone]
[1]
  Adverse Drug Reaction Reported: Hematological

## Cc1cc(C)nc(NS(=O)(=O)c2ccc(N)cc2)n1 [Sulfamethazine]
[1]
  Adverse Drug Reaction Reported: Hematological/Gastrointestinal

## CCC1(c2ccc(N)cc2)CCC(=O)NC1=O (centres unmarked) [Aminoglutethamide]
[1]
  Adverse Drug Reaction Reported: Adrenal insufficiency

## NNc1nncc2ccccc12 [Hydralazine]
[1]
  Adverse Drug Reaction Reported: Lupus, uncontrolled hypertension
